Each structure is given as a SMILES string. Read-outs that look alike come from different tables or passages of the source.

Experiment [1] addresses mTOR (human recombinant aa mTOR 1360-2549) (Homo sapiens (Human), UniProt P42345). The experiment is described as follows: mTOR enzymatic test by TR-FRET (phosphorylation of GFP-4EBP1). Type of experiment: biochemical. In short, it runs like this:
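After a 30 min room-temperature kinase reaction, EDTA (10 mM final) and Tb-labelled phospho-Thr46 antibody (2 nM final) were added and incubated 60 min. Energy transfer from Tb to phosphorylated GFP-4EBP1 was read at 340 nm excitation, emissions 490/520 nm. Values derive from the 520/490 fluorescence ratio.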

The target of experiment [2] is PI3Kα (p110α/p85α) (Homo sapiens (Human), UniProt P42336). Put plainly: PI3Kα enzymatic test by measuring the consumption of ATP. It counts as biochemical. The method, boiled down:
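ATP consumption read out by KinaseGlo luminescence after a 90 min reaction of 1.7 μg/ml PI3Kα (p110α/p85α) with 2 μM ATP and 50 μM PIP2, buffered at pH 7.5 (Tris, 10 mM MgCl2, 1 mM EGTA, 0.03% Chaps, 1 mM DTT). Threefold dilution series over ≥10 000-fold range yield IC50.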

Experiment [3] deals with Akt-pS473 in U87MG cells.
The subject of experiment [4] is U87MG tumour cells. The experiment is described as follows: Test of in vitro proliferation of U87MG tumour cells. It counts as cell-based. The settings on record: Homo sapiens, U-87 MG, 72 h, U87MG cells, 72 hours; read-out: U87 Cell Proliferation IC50. As to the method: Model 4: Test of in vitro Proliferation of U87MG Tumour Cells.
The cell growth is determined with the reagent CellTiter 96 AQueous One Solution Cell Proliferation Assay from Promega (Cat. No. G3581).

Setting [5] is: Homo sapiens, U-87 MG, read-out: U87 Akt-pS473 % Inhibition or IC50, nM (IC50), U87MG cells.

mTOR (human recombinant aa mTOR 1360-2549), sequence (P42345 1360-2549): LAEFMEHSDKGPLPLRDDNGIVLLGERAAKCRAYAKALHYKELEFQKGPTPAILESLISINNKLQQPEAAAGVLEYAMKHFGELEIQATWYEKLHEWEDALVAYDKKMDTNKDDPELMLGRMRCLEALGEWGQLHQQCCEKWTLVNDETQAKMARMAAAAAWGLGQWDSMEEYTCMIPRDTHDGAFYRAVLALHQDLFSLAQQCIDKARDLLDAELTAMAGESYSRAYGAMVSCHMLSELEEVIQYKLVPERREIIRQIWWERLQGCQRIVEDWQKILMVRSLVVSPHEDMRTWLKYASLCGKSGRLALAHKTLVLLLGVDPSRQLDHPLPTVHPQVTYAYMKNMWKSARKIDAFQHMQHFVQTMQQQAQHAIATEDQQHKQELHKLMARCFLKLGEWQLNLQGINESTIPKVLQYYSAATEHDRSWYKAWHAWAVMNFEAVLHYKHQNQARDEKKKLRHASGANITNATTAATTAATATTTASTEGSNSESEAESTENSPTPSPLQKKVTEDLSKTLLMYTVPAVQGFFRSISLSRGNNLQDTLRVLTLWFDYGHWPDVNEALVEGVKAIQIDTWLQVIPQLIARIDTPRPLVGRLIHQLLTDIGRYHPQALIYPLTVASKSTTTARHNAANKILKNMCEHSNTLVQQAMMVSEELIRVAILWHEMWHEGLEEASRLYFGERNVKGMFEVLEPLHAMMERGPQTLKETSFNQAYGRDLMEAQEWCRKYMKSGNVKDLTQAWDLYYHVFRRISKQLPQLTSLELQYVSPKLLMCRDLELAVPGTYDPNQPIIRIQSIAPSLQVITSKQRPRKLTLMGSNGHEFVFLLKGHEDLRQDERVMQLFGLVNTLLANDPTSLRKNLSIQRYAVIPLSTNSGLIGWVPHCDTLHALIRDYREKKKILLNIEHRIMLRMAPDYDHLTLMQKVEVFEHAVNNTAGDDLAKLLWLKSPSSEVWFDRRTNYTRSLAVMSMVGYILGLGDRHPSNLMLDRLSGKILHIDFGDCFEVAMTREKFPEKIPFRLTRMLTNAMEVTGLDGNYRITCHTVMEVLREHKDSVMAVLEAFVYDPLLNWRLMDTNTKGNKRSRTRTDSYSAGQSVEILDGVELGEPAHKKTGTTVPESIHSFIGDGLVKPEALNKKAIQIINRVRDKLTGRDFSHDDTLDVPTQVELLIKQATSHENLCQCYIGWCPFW
PI3Kα (p110α/p85α), sequence (P42336 whole entry): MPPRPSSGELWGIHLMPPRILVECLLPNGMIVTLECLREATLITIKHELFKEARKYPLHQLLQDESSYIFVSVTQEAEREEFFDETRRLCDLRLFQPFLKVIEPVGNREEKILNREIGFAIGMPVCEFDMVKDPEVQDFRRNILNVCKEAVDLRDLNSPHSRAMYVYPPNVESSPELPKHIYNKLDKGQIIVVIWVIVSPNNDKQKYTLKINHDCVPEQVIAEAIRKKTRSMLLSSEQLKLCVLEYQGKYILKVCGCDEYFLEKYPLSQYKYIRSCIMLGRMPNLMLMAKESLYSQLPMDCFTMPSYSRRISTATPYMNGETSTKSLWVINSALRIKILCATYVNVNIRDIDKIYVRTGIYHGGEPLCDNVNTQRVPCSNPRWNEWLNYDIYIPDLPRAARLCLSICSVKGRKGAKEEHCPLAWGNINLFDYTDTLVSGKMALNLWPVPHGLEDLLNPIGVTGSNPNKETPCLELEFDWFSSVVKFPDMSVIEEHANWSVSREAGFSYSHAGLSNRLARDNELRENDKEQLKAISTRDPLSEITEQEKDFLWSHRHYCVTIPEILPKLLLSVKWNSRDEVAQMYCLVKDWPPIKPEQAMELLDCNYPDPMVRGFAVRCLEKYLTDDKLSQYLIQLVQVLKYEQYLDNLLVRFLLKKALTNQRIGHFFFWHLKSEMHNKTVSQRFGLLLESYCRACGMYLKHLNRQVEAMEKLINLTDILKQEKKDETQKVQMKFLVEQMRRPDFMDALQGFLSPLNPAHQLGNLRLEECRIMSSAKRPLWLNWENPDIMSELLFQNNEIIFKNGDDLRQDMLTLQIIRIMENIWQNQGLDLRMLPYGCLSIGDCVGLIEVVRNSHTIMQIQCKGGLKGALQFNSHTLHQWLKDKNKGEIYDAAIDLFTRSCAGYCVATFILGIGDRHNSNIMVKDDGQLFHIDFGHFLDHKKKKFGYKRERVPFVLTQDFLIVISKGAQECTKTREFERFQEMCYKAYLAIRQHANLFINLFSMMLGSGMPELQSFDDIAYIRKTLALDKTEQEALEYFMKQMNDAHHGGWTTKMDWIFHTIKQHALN
PI3Kα (p110α/p85α), sequence (P27986 whole entry partner): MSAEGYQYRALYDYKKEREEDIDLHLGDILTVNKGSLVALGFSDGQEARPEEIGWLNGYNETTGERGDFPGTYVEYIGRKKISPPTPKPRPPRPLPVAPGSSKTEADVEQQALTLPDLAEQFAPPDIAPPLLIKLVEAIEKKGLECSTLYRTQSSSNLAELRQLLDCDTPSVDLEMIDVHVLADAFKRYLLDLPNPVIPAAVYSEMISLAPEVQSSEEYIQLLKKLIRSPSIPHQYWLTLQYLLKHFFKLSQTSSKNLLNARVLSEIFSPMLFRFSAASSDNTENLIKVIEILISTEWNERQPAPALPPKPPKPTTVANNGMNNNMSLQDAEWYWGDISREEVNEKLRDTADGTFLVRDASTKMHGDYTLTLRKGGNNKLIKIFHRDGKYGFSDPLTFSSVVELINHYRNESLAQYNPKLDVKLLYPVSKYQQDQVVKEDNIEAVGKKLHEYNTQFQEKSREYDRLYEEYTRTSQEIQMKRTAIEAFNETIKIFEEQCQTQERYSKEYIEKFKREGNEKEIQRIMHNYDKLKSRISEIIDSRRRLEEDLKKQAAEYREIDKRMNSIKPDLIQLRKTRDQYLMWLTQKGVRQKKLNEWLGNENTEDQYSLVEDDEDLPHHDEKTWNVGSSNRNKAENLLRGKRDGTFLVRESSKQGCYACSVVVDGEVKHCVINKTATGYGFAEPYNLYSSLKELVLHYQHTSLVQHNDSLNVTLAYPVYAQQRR

Take `CCN1CC(C)(C)Oc2nc(N3CC4CCC(C3)O4)nc(-c3ccc(NC(=O)NCCF)cc3)c2C1=O` [Example 123, 1-{4-[6-Ethyl-8,8-dimethyl-2-(8-oxa-3-azabicyclo[3.2.1]oct-3-yl)-5-oxo-5,6,7,8-tetrahydro-9-oxa-1,3,6-triazabenzocyclohepten-4-yl]phenyl}-3-(2-fluoroethyl)urea]: the IC50 worked out at 22 nM in experiment [1], 150 nM in experiment [3] (setting [5]) and 221 nM in experiment [4]. Moreover, the “PI3Ka IC50” value in experiment [2] is reported as 3627 nM.

For `CCN1CC(C)(C)Oc2nc(N3CC4CCC(C3)O4)nc(-c3ccc(NC(=O)Nc4ccc(OC)nc4)c(F)c3)c2C1=O` [Example 124, 1-{4-[6-Ethyl-8,8-dimethyl-2-(8-oxa-3-azabicyclo[3.2.1]oct-3-yl)-5-oxo-5,6,7,8-tetrahydro-9-oxa-1,3,6-triazabenzocyclohepten-4-yl]-2-fluorophenyl}-3-(6-methoxypyridin-3-yl)urea], the IC50 was found to be 20 nM in experiment [1]; 61 nM in experiment [3] (read-out: U87 Akt-pS473 % Inhibition or IC50, nM (IC50), U87MG cells); 115 nM in experiment [4]. Besides, the “PI3Ka IC50” value in experiment [2] was >10000 nM.

As to `CCN1CC(C)(C)Oc2nc(N3CC4CCC(C3)O4)nc(-c3ccc(NC(=O)Nc4cnn(C)c4)cc3)c2C1=O` [Example 126, 1-{4-[6-Ethyl-8,8-dimethyl-2-(8-oxa-3-azabicyclo[3.2.1]oct-3-yl)-5-oxo-5,6,7,8-tetrahydro-9-oxa-1,3,6-triazabenzocyclohepten-4-yl]phenyl}-3-(1-methyl-1H-pyrazol-4-yl)urea], the values for the IC50 in experiment [1], in experiment [3] (setting [5]) and in experiment [4] were 13 nM, 68 nM and 225 nM, respectively. In experiment [2], the “PI3Ka IC50” value is recorded as 2963 nM.

On to `CCN1CC(C)(C)Oc2nc(N3CC4CCC(C3)O4)nc(-c3ccc(NC(=O)Nc4cccc(OC)c4)cc3)c2C1=O` [Example 127, 1-{4-[6-Ethyl-8,8-dimethyl-2-(8-oxa-3-azabicyclo[3.2.1]oct-3-yl)-5-oxo-5,6,7,8-tetrahydro-9-oxa-1,3,6-triazabenzocyclohepten-4-yl]phenyl}-3-(3-methoxyphenyl)urea], for which the IC50 in experiment [1] is 16 nM; in experiment [3] (setting [5]), 24 nM; in experiment [4], 79 nM. Moreover, the “PI3Ka IC50” value in experiment [2] is 3646 nM.

With `CCN1CC(C)(C)Oc2nc(N3CC4CCC(C3)O4)nc(-c3ccc(NC(=O)NCC4CCS(=O)(=O)C4)c(F)c3)c2C1=O` (stereo not shown) [Example 129, 1-(1,1-Dioxotetrahydro-1λ6-thiophen-3-ylmethyl)-3-{4-[6-ethyl-8,8-dimethyl-2-(8-oxa-3-azabicyclo[3.2.1]oct-3-yl)-5-oxo-5,6,7,8-tetrahydro-9-oxa-1,3,6-triazabenzocyclohepten-4-yl]-2-fluorophenyl}urea], the results for the IC50 in experiment [1], in experiment [3] (setting [5]) and in experiment [4] were 1380 nM, > 3000 nM and > 10000 nM, respectively. Besides, the “PI3Ka IC50” value in experiment [2] is >10000 nM.

Turning to `CCN1CC(C)(C)Oc2nc(N3CC4CCC(C3)O4)nc(-c3ccc(NC(=O)NCC4CCN(C)CC4)c(F)c3)c2C1=O` [Example 130, 1-{4-[6-Ethyl-8,8-dimethyl-2-(8-oxa-3-azabicyclo[3.2.1]oct-3-yl)-5-oxo-5,6,7,8-tetrahydro-9-oxa-1,3,6-triazabenzocyclohepten-4-yl]-2-fluorophenyl}-3-(1-methylpiperidin-4-ylmethyl)urea], the IC50 in experiment [1] is 2120 nM; in experiment [3] (setting [5]), > 3000 nM; in experiment [4] it was > 10000 nM. Further, the “PI3Ka IC50” value in experiment [2] is listed as >10000 nM.

On to `CCN1CC(C)(C)Oc2nc(N3CC4CCC(C3)O4)nc(-c3ccc(NC(=O)NCCOC)c(F)c3)c2C1=O` [Example 131, 1-{4-[6-Ethyl-8,8-dimethyl-2-(8-oxa-3-azabicyclo[3.2.1]oct-3-yl)-5-oxo-5,6,7,8-tetrahydro-9-oxa-1,3,6-triazabenzocyclohepten-4-yl]-2-fluorophenyl}-3-(2-methoxyethyl)urea], for which the IC50 in experiment [1] worked out at 383 nM; in experiment [3] (setting [5]), 1990 nM; in experiment [4], 5900 nM. Also, the “PI3Ka IC50” value in experiment [2] is on record as >10000 nM.

For `CCNC(=O)Nc1ccc(-c2nc(N3CC4CCC(C3)O4)nc3c2C(=O)N(C2CCN(C)CC2)CC(C)(C)O3)cc1` [Example 132, 1-{4-[8,8-Dimethyl-6-(1-methylpiperidin-4-yl)-2-(8-oxa-3-azabicyclo[3.2.1]oct-3-yl)-5-oxo-5,6,7,8-tetrahydro-9-oxa-1,3,6-triazabenzocyclohepten-4-yl]phenyl}-3-ethylurea], the results for the IC50 in experiment [1], in experiment [3] (setting [5]) and in experiment [4] were 245 nM, > 3000 nM and > 10000 nM, respectively. The “PI3Ka IC50” value in experiment [2] came out at 4320 nM.

Turning to `CCN1CC(C)(C)Oc2nc(N3CC4CCC(C3)O4)nc(-c3ccc(NC(=O)NC4CC4)c(F)c3)c2C1=O` [Example 133, 1-Cyclopropyl-3-{4-[6-ethyl-8,8-dimethyl-2-(8-oxa-3-azabicyclo[3.2.1]oct-3-yl)-5-oxo-5,6,7,8-tetrahydro-9-oxa-1,3,6-triazabenzocyclohepten-4-yl]-2-fluorophenyl}urea], the IC50 is 33 nM in experiment [1], 92 nM in experiment [3] (setting [5]) and 219 nM in experiment [4]. In experiment [2], the “PI3Ka IC50” value was >10000 nM.

For `CCN1CC(C)(C)Oc2nc(N3CC4CCC(C3)O4)nc(-c3ccc(NC(=O)NCC4CCOCC4)c(F)c3)c2C1=O` [Example 134, 1-{4-[6-Ethyl-8,8-dimethyl-2-(8-oxa-3-azabicyclo[3.2.1]oct-3-yl)-5-oxo-5,6,7,8-tetrahydro-9-oxa-1,3,6-triazabenzocyclohepten-4-yl]-2-fluorophenyl}-3-(tetrahydropyran-4-ylmethyl)urea], the IC50 is 3160 nM in experiment [1], > 3000 nM in experiment [3] (setting [5]) and > 10000 nM in experiment [4]. Also, in experiment [2], the “PI3Ka IC50” value is recorded as >10000 nM.

For `CCN1CC(C)(C)Oc2nc(N3CC4CCC(C3)O4)nc(-c3ccc(NC(=O)Nc4ccon4)c(F)c3)c2C1=O` [Example 135, 1-{4-[6-Ethyl-8,8-dimethyl-2-(8-oxa-3-azabicyclo[3.2.1]oct-3-yl)-5-oxo-5,6,7,8-tetrahydro-9-oxa-1,3,6-triazabenzocyclohepten-4-yl]-2-fluorophenyl}-3-isoxazol-3-ylurea], the IC50 in experiment [1] was determined as 11 nM; in experiment [3] (setting [5]), 26 nM; in experiment [4], 112 nM. Further, the “PI3Ka IC50” value in experiment [2] came to 6525 nM.

`CCN1CC(C)(C)Oc2nc(N3CC4CCC(C3)O4)nc(-c3ccc(NC(=O)Nc4cnc(OC)nc4)c(F)c3)c2C1=O` [Example 136, 1-{4-[6-Ethyl-8,8-dimethyl-2-(8-oxa-3-azabicyclo[3.2.1]oct-3-yl)-5-oxo-5,6,7,8-tetrahydro-9-oxa-1,3,6-triazabenzocyclohepten-4-yl]-2-fluorophenyl}-3-(2-methoxypyrimidin-5-yl)urea]: the IC50 turned out to be 34 nM in experiment [1], 37 nM in experiment [3] (setting [5]) and 239 nM in experiment [4]. Also, the “PI3Ka IC50” value in experiment [2] is reported as >10000 nM.

Consider `CCN1CC(C)(C)Oc2nc(N3CC4CCC(C3)O4)nc(-c3ccc(NC(=O)NC4COC4)c(F)c3)c2C1=O` [Example 137, 1-{4-[6-Ethyl-8,8-dimethyl-2-(8-oxa-3-azabicyclo[3.2.1]oct-3-yl)-5-oxo-5,6,7,8-tetrahydro-9-oxa-1,3,6-triazabenzocyclohepten-4-yl]-2-fluorophenyl}-3-oxetan-3-ylurea], for which the values for the IC50 in experiment [1], in experiment [3] (setting [5]) and in experiment [4] were 29 nM, 241 nM and 1330 nM, respectively. The “PI3Ka IC50” value in experiment [2] is >10000 nM.
